In US20260258048A1, “LACTAM-CONTAINING IMIDAZOPYRIDAZINE IL-17 INHIBITOR COMPOUNDS” (Janssen Pharmaceutica NV, priority 2023, published 2026) one finds IC50 data, which are given here for 14 compounds.

One may read the IC50 as the point on the concentration scale where inhibition reaches its midpoint.

The target in assay [1] is IL-17A(FLAG-tagged): IL-17RA(His-tagged) (Homo sapiens, UniProt Q16552, K93Q). Put plainly: IL-17A(FLAG-tagged): IL-17RA(His-tagged) binding disruption Eu-HTRF assay. The following applies: class of the average IC50 where tested more than once. From the text: IL-17A(FLAG-tagged): IL-17RA(His-tagged) binding disruption Eu-HTRF assay An antibody directed against the FLAG tag of IL-17A (SEQ ID NO: 1) is labeled with the HTRF donor chromophore (Europium-cryptate). IL-17A is present as a dimer that is “locked into” this quaternary structure due to the formation of loop-spanning intramolecular disulfide bridges. The construct of IL-17RA used in the assay excludes the […] portion of the receptor and is fused to a C-terminal 10×His tag (SEQ ID NO:2). An antibody directed against the His tag of the IL-17RA chimera is labeled with the HTRF acceptor chromophore (“D2”). The fluorescence-resonance energy transfer (FRET) depends on the vicinity of the donor chromophore to the acceptor, and interruption of the binding between the IL-17A and IL-17RA causes the reduction/loss of FRET. Therefore, this assay allows to evaluate the compound effect on the binding IL-17A and IL-17RA by monitoring the fluorescence intensity of donor vs acceptor. The assay is run as described below.
40 nl of 2-fold serial diluted compound solution for total 22 dilution points is added into each well of a 1536-well, white, low-volume, non-binding plate (Greiner #782904), then 2 μl of FLAG tagged IL-17A at 2× final concentration (1 μM) in solution of PBS+0.01% Triton-X100 is added to each well. The assay plate is briefly centrifuged then incubated for 1 h at rt. A mixed solution is prepared containing 2×5 nM 10HIS×IL-17RA, 2×2.5 nM Eu-anti-FLAG (CISBIO), 2×5 nM D2-anti-HIS (CISBIO) in PBS+0.01% Triton-X100+200 mM Potassium Fluoride (Sigma 60238) and 2 μl of mix is added to each well of the assay plate. The plate is briefly centrifuged then incubated for 2 h at rt. The HTRF intensities at the wavelength of donor (615 nm) and acceptor (665 nm) are measured using BMG Pherastar. The ratio between intensities at two wavelengths is calculated and plotted against the compound concentration and the data is fitted to a one-site competition model to yield IC50 of the compound.
(In general: Time-resolved FRET reads energy transfer from a long-lived donor to a nearby acceptor.)

Assay [2] has as its system IL-17A-induced G-CSF production in human normal keratinocyte (NHK). Description: NHK assay: IL-17A-induced G-CSF production in normal human keratinocytes. It counts as cell-based. The conditions noted are these: Homo sapiens, Keratinocyte, 24 h, IL-17A 5 ng/mL, class of the average IC50 where tested more than once. The protocol: IL-17A acts directly on keratinocytes through binding to dimeric receptor IL-17RA/RC and drives the production of a number of inflammatory mediators known to be elevated in psoriasis lesional tissue. IL-17A small molecule inhibitors that block the IL-17A to interact with IL-17R would inhibit the IL-17A signaling in its targeted cells such as keratinocytes. The compound functional activity is evaluated for its impact on IL-17A-induced G-CSF production in human normal keratinocyte (NHK).
Adult normal human keratinocytes are cultured in keratinocyte growth medium (Lonza) in a flask till reaching ~90% confluence, then cells are transferred to a 384-well plate at density of 3000-4000 cell/well. Recombinant human IL-17A (Gibco PHC9174) is pre-incubated with titrated compound or DMSO for 1 h at rt then added to the cell culture plate. The final concentration of IL-17A is 5 ng/mL and DMSO is 0.2%, in the culture containing 5% FBS. Cells are cultured/treated for 24 h at 37° C. Supernatants are collected and G-CSF production is measured through HTRF technology using Human G-CSF Kit (CisBio). G-CSF concentration was extrapolated from the standard curve and IC50 is determined using GraphPad Prism. Cell viability is also evaluated using CellTiter-Glo kit (Promega) and effect of compound on cell viability is compared to DMSO control.

Sequence of UniProt Q16552 (Q16552 with tags, fused parts or gaps K93Q): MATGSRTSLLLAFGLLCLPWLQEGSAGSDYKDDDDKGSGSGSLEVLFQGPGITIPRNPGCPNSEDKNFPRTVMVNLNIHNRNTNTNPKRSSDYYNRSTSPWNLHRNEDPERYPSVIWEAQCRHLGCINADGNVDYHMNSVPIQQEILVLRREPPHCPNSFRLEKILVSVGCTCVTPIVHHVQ

Regarding `Cc1nonc1C(=O)N[C@H](c1cn2ncc(C[C@@H]3CC[C@H](C(F)(F)F)NC3=O)cc2n1)C1CCC(F)(F)CC1` (relative stereo) [Example 48, N—((S)-(4,4-difluorocyclohexyl)7-(((3S*,6R*)-2-oxo-6-(trifluoromethyl)piperidin-3-yl)methyl)imidazo[1,2-b]pyridazin-2-yl)methyl)-4-methyl-1,2,5-oxadiazole-3-carboxamide], the half-maximal inhibitory concentration (IC50) in assay [1] and in assay [2] was more than 4 µM in each case.
With `O=C(N[C@H](c1cn2ncc(C[C@@H]3C(=O)NC[C@@H]3C(F)(F)F)cc2n1)C1CCC(F)(F)CC1)c1nonc1C1CC1` (relative stereo) [Example 49, 4-Cyclopropyl-N—((S)-(4,4-difluorocyclohexyl)(7-(((3S*,4R*)-2-oxo-4-(trifluoromethyl)pyrrolidin-3-yl)methyl)imidazo[1,2-b]pyridazin-2-yl)methyl)-1,2,5-oxadiazole-3-carboxamide], the IC50 in assay [1] was 0.4 to 4 µM; in assay [2] it was more than 4 µM.
In the case of `O=C(N[C@H](c1cn2ncc([C@H](O)[C@H]3C[C@H](C(F)(F)F)NC3=O)cc2n1)C1CCC(F)(F)CC1)c1nonc1C1CC1` (relative stereo) [Example 63, 4-Cyclopropyl-N—((S)-(4,4-difluorocyclohexyl)(7-((R*)-hydroxy((3R*,5R*)-2-oxo-5-(trifluoromethyl)pyrrolidin-3-yl)methyl)imidazo[1,2-b]pyridazin-2-yl)methyl)-1,2,5-oxadiazole-3-carboxamide], the half-maximal inhibitory concentration (IC50) is 0.4 to 4 µM in assay [1] and more than 4 µM in assay [2].
Turning to `O=C(N[C@H](c1cn2ncc([C@H](O)[C@@H]3C[C@H](C(F)(F)F)NC3=O)cc2n1)C1CCC(F)(F)CC1)c1nonc1C1CC1` (relative stereo) [Example 64, 4-Cyclopropyl-N—((S)-(4,4-difluorocyclohexyl)(7-((R*)-hydroxy((3S*,5R*)-2-oxo-5-(trifluoromethyl)pyrrolidin-3-yl)methyl)imidazo[1,2-b]pyridazin-2-yl)methyl)-1,2,5-oxadiazole-3-carboxamide], the 50% inhibitory concentration (IC50) in assay [1] is 0.4 to 4 µM; in assay [2], less than 0.4 µM.
On the same counts, the results for `CC(C)(CC[C@H](NC(=O)c1nonc1C1CC1)c1cn2ncc([C@H](O)[C@H]3C[C@@H](C(F)(F)F)NC3=O)cc2n1)C(F)(F)F` (relative stereo) [Example 65, 4-Cyclopropyl-N—((S)-5,5,5-trifluoro-1-(7-((R*)-hydroxy((3R*,5S)-2-oxo-5-(trifluoromethyl)pyrrolidin-3-yl)methyl)imidazo[1,2-b]pyridazin-2-yl)-4,4-dimethylpentyl)-1,2,5-oxadiazole-3-carboxamide] are less than 0.4 µM and less than 0.4 µM.
For the compound `O=C(N[C@H](c1cn2ncc(C[C@@H]3C[C@H](C(F)(F)F)NC3=O)cc2n1)C1CCC(F)(F)CC1)c1nonc1C1CC1` (relative stereo) [Example 68, 4-Cyclopropyl-N—((S)-(4,4-difluorocyclohexyl)(7-(((3R*,5R*)-2-oxo-5-(trifluoromethyl)pyrrolidin-3-yl)methyl)imidazo[1,2-b]pyridazin-2-yl)methyl)-1,2,5-oxadiazole-3-carboxamide], the 50% inhibitory concentration (IC50) in assay [1] and in assay [2] was 0.4 to 4 µM throughout.
As to `O=C(N[C@H](c1cn2ncc(C[C@H]3C[C@H](C(F)(F)F)NC3=O)cc2n1)C1CCC(F)(F)CC1)c1nonc1C1CC1` (relative stereo) [Example 69, 4-Cyclopropyl-N—((S)-(4,4-difluorocyclohexyl)(7-(((3S*,5R*)-2-oxo-5-(trifluoromethyl)pyrrolidin-3-yl)methyl)imidazo[1,2-b]pyridazin-2-yl)methyl)-1,2,5-oxadiazole-3-carboxamide], the IC50 in assay [1] and in assay [2] was 0.4 to 4 µM in each case.
On to `O=C(N[C@H](c1cn2ncc(C[C@@H]3C[C@@H](C(F)(F)F)NC3=O)cc2n1)C1CCC(F)(F)CC1)c1nonc1C1CC1` (relative stereo) [Example 70, 4-Cyclopropyl-N—((S)-(4,4-difluorocyclohexyl)(7-(((3R*,5S*)-2-oxo-5-(trifluoromethyl)pyrrolidin-3-yl)methyl)imidazo[1,2-b]pyridazin-2-yl)methyl)-1,2,5-oxadiazole-3-carboxamide], for which the concentration for half-maximal inhibition (IC50) in assay [1] and in assay [2] was less than 0.4 µM in each case.
With `O=C(N[C@H](c1cn2ncc(C[C@H]3C[C@@H](C(F)(F)F)NC3=O)cc2n1)C1CCC(F)(F)CC1)c1nonc1C1CC1` (relative stereo) [Example 71, 4-Cyclopropyl-N—((S)-(4,4-difluorocyclohexyl)(7-(((3S*,5S*)-2-oxo-5-(trifluoromethyl)pyrrolidin-3-yl)methyl)imidazo[1,2-b]pyridazin-2-yl)methyl)-1,2,5-oxadiazole-3-carboxamide], the values for the IC50 in assay [1] and in assay [2] were 0.4 to 4 µM and more than 4 µM, respectively.
On the same counts, the results for `O=C(N[C@H](c1cn2ncc([C@@H](O)[C@@H]3C[C@@H](C(F)(F)F)NC3=O)cc2n1)C1CCC(F)(F)CC1)c1nonc1C1CC1` (relative stereo) [Example 72, 4-Cyclopropyl-N—((S)-(4,4-difluorocyclohexyl(7-((S*)-hydroxy((3S*,5S*)-2-oxo-5-(trifluoromethyl)pyrrolidin-3-yl)methyl)imidazo[1,2-b]pyridazin-2-yl)methyl)-1,2,5-oxadiazole-3-carboxamide] are 0.4 to 4 µM and 0.4 to 4 µM.
On the same counts, the results for `O=C(N[C@H](c1cn2ncc([C@@H](O)[C@H]3C[C@@H](C(F)(F)F)NC3=O)cc2n1)C1CCC(F)(F)CC1)c1nonc1C1CC1` (relative stereo) [Example 73] are 0.4 to 4 µM and 0.4 to 4 µM.
Take `O=C(N[C@H](c1cn2ncc([C@H](O)[C@@H]3C[C@@H](C(F)(F)F)NC3=O)cc2n1)C1CCC(F)(F)CC1)c1nonc1C1CC1` (relative stereo) [Example 75, 4-Cyclopropyl-N—((S)-(4,4-difluorocyclohexyl)(7-((R*)-hydroxy((3S*,5S*)-2-oxo-5-(trifluoromethyl)pyrrolidin-3-yl)methyl)imidazo[1,2-b]pyridazin-2-yl)methyl)-1,2,5-oxadiazole-3-carboxamide]: the half-maximal inhibitory concentration (IC50) in assay [1] and in assay [2] was less than 0.4 µM in each case.
`O=C(N[C@H](c1cn2ncc([C@H](O)[C@H]3C[C@@H](C(F)(F)F)NC3=O)cc2n1)C1CCC(F)(F)CC1)c1nonc1C1CC1` (relative stereo) [Example 77, 4-Cyclopropyl-N—((S)-(4,4-difluorocyclohexyl)(7-((R*)-hydroxy((3R*,5S*)-2-oxo-5-(trifluoromethyl)pyrrolidin-3-yl)methyl)imidazo[1,2-b]pyridazin-2-yl)methyl)-1,2,5-oxadiazole-3-carboxamide]: the 50% inhibitory concentration (IC50) in assay [1] was more than 4 µM; in assay [2], 0.4 to 4 µM.
Consider `C[C@@H](c1cnn2cc([C@@H](NC(=O)c3nonc3C3CC3)C3CCC(F)(F)CC3)nc2c1)[C@H]1C[C@@H](C(F)(F)F)NC1=O` (relative stereo) [Example 78, 4-Cyclopropyl-N—((S)-(4,4-difluorocyclohexyl)(7-((R*)-1-((3R*,5S)-2-oxo-5-(trifluoromethyl)pyrrolidin-3-yl)ethyl)imidazo[1,2-b]pyridazin-2-yl)methyl)-1,2,5-oxadiazole-3-carboxamide], for which the IC50 in assay [1] and in assay [2] was more than 4 µM throughout.
